Measurements: the NIST ThermoML archive (doi:10.1021/je700260f)

Conditions: 293.14 K, Liquid, Vibrating tube method

FC(C(F)(F)F)C(F)(F)F [1,1,1,2,3,3,3-heptafluoropropane]
Conditions	mass density [kg/m3]
5029 kPa	1439.2
7613 kPa	1453.4
7636 kPa	1453.6
7664 kPa	1453.8
7697 kPa	1454
7725 kPa	1454
7758 kPa	1454.2
7801 kPa	1454.4
7862 kPa	1454.8
7886 kPa	1454.8
7919 kPa	1455.1
7952 kPa	1455.3
7995 kPa	1455.4
8024 kPa	1455.6
8053 kPa	1455.7
8087 kPa	1455.9
8111 kPa	1456.1
8140 kPa	1456.2
8183 kPa	1456.4
8211 kPa	1456.6
8240 kPa	1456.7
8283 kPa	1456.9
8312 kPa	1457.1
8350 kPa	1457.4
8380 kPa	1457.4
8410 kPa	1457.7
8447 kPa	1457.8
8480 kPa	1457.9
8509 kPa	1458.1
8542 kPa	1458.3
9213 kPa	1461.8
9292 kPa	1462.1
9327 kPa	1462.4
9357 kPa	1462.4
9402 kPa	1462.7
9437 kPa	1462.7
9481 kPa	1463
9511 kPa	1463.2
9547 kPa	1463.4
9584 kPa	1463.5
9615 kPa	1463.7
9655 kPa	1464
9695 kPa	1464.1
9731 kPa	1464.2
9771 kPa	1464.6
9807 kPa	1464.6
9843 kPa	1464.8
9879 kPa	1464.9
9915 kPa	1465.1
9946 kPa	1465.3
10356 kPa	1467.4
10403 kPa	1467.6
10428 kPa	1467.8
10474 kPa	1467.9
10520 kPa	1468.1
11001 kPa	1470.5
12780 kPa	1478.5
12814 kPa	1478.8
12854 kPa	1478.9
12939 kPa	1479.2
13996 kPa	1483.9
14034 kPa	1484.1
16570 kPa	1494.7
16613 kPa	1494.8
16642 kPa	1494.8
16676 kPa	1495.1
16710 kPa	1495.1
16801 kPa	1495.6
17585 kPa	1498.6
17619 kPa	1498.8
19526 kPa	1506.1
19555 kPa	1506.3
19593 kPa	1506.2
20937 kPa	1511.3
21424 kPa	1513.1
21528 kPa	1513.4
21563 kPa	1513.5
21593 kPa	1513.7
21629 kPa	1513.8
21779 kPa	1514.5
21810 kPa	1514.5
21855 kPa	1514.7
21896 kPa	1514.8
23767 kPa	1521.3
32750 kPa	1549.5
32783 kPa	1549.7
32817 kPa	1549.7
32855 kPa	1549.9
32884 kPa	1549.9
32926 kPa	1550.1
32970 kPa	1550.2
32998 kPa	1550.3
33036 kPa	1550.4
33075 kPa	1550.3
33109 kPa	1550.6
33143 kPa	1550.6
33182 kPa	1550.8
33215 kPa	1550.9
33255 kPa	1550.8
33293 kPa	1551.1
33323 kPa	1551.1
33367 kPa	1551.3
33406 kPa	1551.4
